Data as given in patent publication US4661471A, “Method of inhibiting and inducing human platelet aggregation” (New England Deaconess Hospital, priority 1984, dated 1987).
Ends that are not written are not given here.

Tests used:
[1] = system: fibrinogen binding to Human platelets; experiment: Inhibition of 125I-fibrinogen binding to ADP-treated human platelets; details: 10^8 platelets/0.5 ml treated with 5-10 micromoles of ADP; 125I-labelled fibrinogen; read-out: IC50 or 50% inhibition of fibrinogen binding
Description: The following experiment illustrates that the peptides of the invention can inhibit fibrinogen binding to platelets. Human platelets at a concentration of 10^8 cells/0.5 ml were treated with 5-10 micromoles of ADP. Various concentrations of the inhibitory peptides were mixed with the platelets and then […] ^125 I-labelled fibrinogen was added to the solution. The IC50 or 50% inhibition of fibrinogen binding was determined for each peptide by allowing the reaction to proceed to a conclusion, separating the platelets from unbound ^125 I-fibrinogen and determining the amount of labelled fibrinogen bound to the platelets. The less labelled fibrinogen bound to the platelets, the better the inhibition.

human platelets [2] = experiment: Inhibition of ADP-induced fibrinogen (gamma chain multimer) cross-linked aggregation of platelets, light transmission; format: cell-based; set-up: dose or concentration left out as unconfirmed; details: 10^8 platelets treated with 5-10 micromoles of ADP; 7 micromoles of gamma chain fibrinogen multimers
Description: The sole figure of the drawing illustrates the inhibition of ADP-induced fibrinogen dependent platelet aggregation caused by incubation with various peptides of the invention.
A 60 µM concentration of a variety of synthetic peptides of the invention was added to 10^8 platelets which had been treated with 5-10 micromoles of ADP. At time zero, 7 micromoles of gamma chain fibrinogen multimers was added and the transmission of the solution was monitored for platelet aggregate formation. FIG. 1 illustrates the results of this experiment. […] While gamma chain multimers were used, similar results have been obtained with bivalent fibrinogen molecules.

human platelets [3] = experiment: Aggregation of ADP-treated platelets separated from plasma proteins by the synthetic peptide-albumin conjugate, in the absence of fibrinogen; format: cell-based; details: peptide added to the platelets prior to the conjugate
Description: Ten micromoles of ADP was added to 10^8 platelets which had been separated from the plasma proteins.

Substance | IC50 [1] | inhibition of the aggregation reaction (transmission) (human platelets [2]) | inhibition of aggregation induced by the synthetic peptide-albumin conjugate (human platelets [3])
Cys-Tyr-Gly-Gln-Gln-His-His-Leu-Gly-Gly-Ala-Lys-Gln-Ala-Gly-Asp-Val-COOH (CYGQQHHLGGAKQAGDV-OH) [heptadecapeptide] | 28 µM |  | 
HHLGGAKQAGDV [dodecapeptide] | 28 µM | almost complete inhibition | the aggregation reaction is inhibited
